Consider 3 compounds from US4668677A, “4-phenylphthalazine derivatives, their preparation and their use as pharmaceuticals” (Mitsubishi Chemical Industries Limited, priority 1984, dated 1987).

The test system of one test is mice. In words: Anti-thrombotic activity: arachidonic acid-induced mortality in mice. In kind it is in vivo, mouse (male ICR-JCL strain). Particulars: for Survival time of dead mice: arachidonic acid 100 mg/Kg i.v.; for Mortality: arachidonic acid 100 mg/Kg i.v. after 1 hour. The method, then:
Male ICR-JCL strain mice with an average body weight of about 25 g and male New Zealand White rabbits with an average body weight of about 3 Kg were used.
Where mice were used as experimental animals, a suspension of the test compound indicated in Table 3 in a 1% tragacanth aqueous solution was orally administered to animals at 20 ml/Kg. One hour after the administration, an arachidonic acid (PL-biochemical Co., Inc.) solution dissolved in a 0.1M sodium carbonate aqueous solution was intravenously given at 100 mg/Kg. Evaluation of activity was effected with the time from the administration of arachidonic acid up to the death of animals as well as mortality.

Another test concerns blood flow. Particulars: Prostaglandins, 25, 549 (1983); cited from earlier work.
The subject of another test is blood platelet. Particulars: Drugs, 18, 439 (1979); cited from earlier work.
The subject of test [1] is blood platelets. Nature of the test: Activity to inhibit the aggregation of blood platelets (collagen, ex vivo after oral administration). It counts as in vivo, rat (male Wistar-ST strain). Particulars: Rattus norvegicus, Platelet, po, read-out: Inhibitory rate of blood platelet aggregation. The method, then: Male Wistar-ST strain rats of an average body weight of 250 g were used, a group consisting of 8 animals. The test compound indicated in the following Table 1 was orally administered to rats in the form of a suspension in a 1% tragacanth aqueous solution at 4 ml/Kg (the test compound 10 mg/Kg).
One hour after the administration, blood samples were obtained from the carotid artery by means of a cannule. […] Tubes were turned upside-down and then subjected to centrifugation at 200×g over 15 minutes to assign the supernatant as a platelet-rich plasma (PRP). The residue was further centrifuged at […] over 15 minutes to assign the supernatant as a platelet-poor plasma (PPP). These supernatants were applied for determining the ability to aggregate blood platelets. […] As an aggregation inducing agent, collagen (availale from Hormon-chemie A.G.) was used at a concentration of 7 to 10 μg/ml.
Inhibitory rate to aggregate blood platelets was calculated according to the following equation: [formula] A: […] in the group to which the 1% tragacanth solution alone was given (Control)
B: Aggregation rate in the group to which the tragacanth solution of the test compound was given.

Test [2] concerns PGI2-like substance in vessel walls. In words: Influence on production of PGI2-like substance in vessel walls (ADP aggregation with carotid artery ring). It counts as in vivo, rat (male Wistar-ST strain). Particulars: for Aggregation rate with ADP when carotid artery ring added: 1 hour, 10 μM ADP. The procedure: Male Wistar-ST strain rats with an average weight of about 250 g were used as experimental animals. After fasted for 18 hours, 6.3 ml of blood sample were obtained from corotid artery and immediately thereafter 0.7 ml of an anticoagulant (3.8% sodium citrate) was added and the sample was centrifuged at 200×g over 15 minutes to take platelet-rich plasma (PRP). The same procedures as above were carried out, using 5 to 6 rats, whereby 5-6 ml as normal PRP were stored and employed.
Reference aggregation values were determined by pouring 1 ml each of stored PRP into plastic test tubes, incubating them at 22° C. for 10 minutes and then determining aggregation rate. As an aggregation inducing agent, one employed 10 μM ADP (available from Sigma Co., Inc.)
A suspension of the compound of this invention or aspirin in a 1% aqueous solution of tragacanth was orally given to animals. After 1 hour, 5 mg of carotid artery were cut out in a ring shape and placed into a plastic test tube together with 1 ml of stored PRP. After incubated at 22° C. for 10 minutes, aggregation rate was determined.
Also, non-medicated groups were similarly treated and aggregation rate was determined.
Determination of blood platelet aggregation rate was made by means of an aggregometer.

For test [3], the system named is blood platelets. Nature of the test: Activity to inhibit the blood platelet adhesion (glass bead method). In kind it is cell-based, rat (male Wistar-ST strain). The settings on record: Rattus norvegicus, read-out: Inhibitory rate of blood platelet adhesion. The method, then:
As experimental animals, there were used male Wistar-ST strain rats of an average body weight of 250 g.
Blood samples were obained from carotid arteries by means of a cannule and immediately admixed with sodium citrate at a volume ratio of 1/10. The mixture was centrifuged at 200×g over 15 minutes to collect the supernatant (platelet-rich plasma: PRP). The PRP was then centrifuged at 2000×g over 15 minutes and the supernatant was removed to give blood platelet pellet.
To the resultant blood platelet pellet was added a 15 mM tris.HCl buffer solution with EDTA (pH 7.4) to resuspend blood platelets therein and then one applied centrifugation at 2000×g over 15 minutes and the supernatant was removed. The resultant washed blood platelets were added to a 0.3 mM tris.HCl buffer solution with CaCl2 (pH 7.4) to resuspend blood platelets therein, whereby there was prepared a blood platelet suspension adjusted to five hundred thousand platelets/μl. To 2 ml of the blood platelet suspension were added 2 μl of a methanolic solution of each test compound and incubation was effected for 15 minutes. Then blood platelet adhesion was determined according to a glass bead method by using a timing blood suction apparatus for determining the blood platelet adhesion.
The number of blood platelets was counted by means of a blood platelet counter.
Inhibitory rate of blood platelet adhesion was calculated according to the following equation: [formula] A: Blood platelet number in the blood platelet suspension passed through a control column
B: Blood platelet number in the blood platelet suspension passed through a bead-packing column

In another test the test system is cerebral cortex. In words: Activity to increase topical cerebral blood flow, cerebral cortex (heat clearance method). It counts as in vivo, rabbit (male New Zealand White). The settings on record: change in blood flow expressed in terms of voltage. The procedure: (§1) The compound of this invention was dissolved in an aqueous solution containing 1% tartaric acid and 1% dimethylacetamide, while papaverine hydrochloride dissolved in 0.9% physiological saline. These test compounds were intravenously given through a residual polyethylene tube within femoral vein.
(§2) Physiol. Scand., 67, 1 (1966); "Kokyu to Junkan" (in Japanese), 15, 435 (1967); the Journal of the Pharmacological Society of Japan, 71, 709 (1975)]. Simultaneously, blood pressure in femoral artery was also determined. Preparation and administration of test compounds were carried out in the same manner as in the above item (6).

For test [4], the system named is femoral artery. In words: Action on blood flow volume in femoral artery. It counts as in vivo, rabbit (male New Zealand White). The method, then: (§3) Male New Zealand White rabbits (body weight of 2.8 Kg to 3.5 Kg) were used and anesthetized with pentobarbital sodium. Blood flow volumes in the carotid artery and femoral artery were measured and recorded via a non-blood observing type of a probe for measuring blood flow volume. Also, blood pressure in femoral artery was simultaneously measured and recorded with measurement of blood flow.
as §1

The subject of the next test is Thoracic aorta. In words: Calcium antagonistic activity (relaxation of thoracic aorta). It counts as cell-based, rat (male Wistar strain). Particulars: Rattus norvegicus; final concentration 10 μM; 10 mM CaCl2. The procedure: Thoracic aorta was removed from male Wistar strain rats with a body weight of 350 g to 450 g and then spiral-shaped pieces of aorta were prepared therefrom. […] Thereafter, samples were further stabilized in Krebs-Henseleit solution containing no CaCl2 over 1 hour and then in a 80 mM KCl nutritive liquid wherein NaCl was exchanged with an equimolar KCl (depolarized liquid) over a further one hour. Then, samples were washed with the depolarized liquid and loaded with a static tension of 1.0 g. When CaCl2 was added to the nutritive liquid so as to reach a final concentration of 10 mM, tension was produced in samples and, after 15-20 minutes from the addition of CaCl2, the maximum tension was obtained. At this point, test compounds were applied and relaxing activity of test compounds was evaluated. Tension was determined in equal dimension.
Relaxation rate was calculated according to the following equation: [formula] A: Maximum tension generated B: Generated tension retained after administration of test compound
All test compounds were given in the form of a solution in dimethyl sulfoxide at a dose of 0.1 ml, whereupon a final concentration of dimethyl sulfoxide itself was adjusted to 0.5 V/V %.

Test [5] concerns femoral artery. Nature of the test: Action on blood pressure in femoral artery. It counts as in vivo, rabbit (male New Zealand White). The procedure: as §3, §1
The test system of another test is candate nucleus. Nature of the test: Activity to increase topical cerebral blood flow, candate nucleus (heat clearance method). In kind it is in vivo, rabbit (male New Zealand White). Particulars: change in blood flow expressed in terms of voltage. The procedure: as §1, §2
The test system of another test is carotid artery. In words: Action on blood flow volume in carotid artery. It counts as in vivo, rabbit (male New Zealand White). The procedure: as §3, §1
Test [6] relates to femoral artery. In words: Blood pressure in femoral artery, topical cerebral blood flow test. In kind it is in vivo, rabbit (male New Zealand White). The method, then: as §1, §2
In the next test the test system is brain. The settings on record: Am. J. Physiol., 243, H416 (1982); cited from earlier work.

Structures can show the parent of a compound that is named as a salt.

Regarding `CC(=O)Oc1ccccc1C(=O)O` [Aspirin, aspirin], in the test on mice (100 mg/Kg oral), the “Survival time of dead mice” value came out at 322 ± 103 s and the Mortality is recorded as 100%. In the test on mice (300 mg/Kg oral), the “Survival time of dead mice” value is 180 ± 67 s and the Mortality was found to be 37.5%. The “activity to increase blood flow (in words)” value in the test with blood flow is “does not show at all the activity to increase blood flow”. In addition, the “activity to inhibit blood platelet aggregation (in words)” value with blood platelet is listed as “show the activity to inhibit blood platelet aggregation”. Moreover, in the test with blood platelets [1], the inhibition at 30 mg/kg came to 67.5% and the inhibition at 100 mg/kg was found to be 100%. The “Aggregation rate with ADP when carotid artery ring added” value in test [2] (30 mg/Kg oral) was 45.7%. Further, the “Aggregation rate with ADP when carotid artery ring added” value in test [2] (100 mg/Kg oral) was determined as 58.3%. Besides, the “inhibition of ADP aggregation with PGI2-like substances existing in carotid artery ring (in words)” value in [2] (from Table 5) was “said phenomena could not be observed”. In addition, the inhibition at 300 µM in the test on blood platelets [3] (3·10^-4 M) is 4%. In addition, the inhibition at 30 µM in the test on blood platelets [3] (3·10^-5 M) amounted to 5.3%. For the same compound, in the test with blood platelets [3] (3·10^-6 M), the inhibition at 3 µM is 8.4%. Further, in the test on blood platelets [3] (3·10^-7 M), the inhibition at 0.3 µM worked out at 3.5%.

In the case of `COc1ccc(Cc2nccc3cc(OC)c(OC)cc23)cc1OC` [Papaverine hydrochloride, papaverine hydrochloride, reference compound], the “Increase in topical blood flow volume, Cerebral cortex” value with cerebral cortex (0.3 mg/Kg i.v.) is 0.57 ± 0.11 Δ μV. For the same compound, the “Increase in topical blood flow volume, Cerebral cortex” value with cerebral cortex (1 mg/Kg i.v.) is on record as 1.05 ± 0.21 Δ μV. For the same compound, in the test on femoral artery [4] (0.5 mg/Kg i.v.), the “Blood flow volume in femoral artery, A: Before administration” value was 16.8 mL/min and the “Blood flow volume in femoral artery, B: After administration” value is 23.0 mL/min. Moreover, in the test on femoral artery [4] (0.5 mg/kg i.v.), the “Blood flow volume in femoral artery, C: Increase degree” value was found to be 6.1 mL/min and the “Blood flow volume in femoral artery, D: Increase rate” value was 40.3%. Also, in the test on femoral artery [4] (1.0 mg/Kg i.v.), the “Blood flow volume in femoral artery, A: Before administration” value came out at 30.1 mL/min and the “Blood flow volume in femoral artery, B: After administration” value was 40.0 mL/min. In the test on femoral artery [4] (1.0 mg/kg i.v.), the “Blood flow volume in femoral artery, C: Increase degree” value is 9.8 mL/min and the “Blood flow volume in femoral artery, D: Increase rate” value is 32.7%. In addition, in the test with Thoracic aorta, the inhibition at 10 µM worked out at 0%. Further, in the test with femoral artery [5] (0.5 mg/kg i.v.), the “Blood pressure in femoral artery, A: Before administration” value is 94.8 mmHg; the “Blood pressure in femoral artery, B: After administration” value was 82.4 mmHg; the “Blood pressure in femoral artery, E: Lowering degree” value is 12.4 mmHg; the “Blood pressure in femoral artery, F: Lowering rate” value was 13.2%. Moreover, in the test on femoral artery [5] (1.0 mg/kg i.v.), the “Blood pressure in femoral artery, A: Before administration” value is on record as 91.8 mmHg; the “Blood pressure in femoral artery, B: After administration” value was 68.8 mmHg; the “Blood pressure in femoral artery, E: Lowering degree” value is 23.1 mmHg; the “Blood pressure in femoral artery, F: Lowering rate” value came to 25.3%. For the same compound, in the test with candate nucleus (0.3 mg/Kg i.v.), the “Increase in topical blood flow volume, Candate nucleus” value is 0.19 ± 0.04 Δ μV. Also, in the test with candate nucleus (1 mg/Kg i.v.), the “Increase in topical blood flow volume, Candate nucleus” value is 0.35 ± 0.07 Δ μV. Moreover, in the test with carotid artery (0.5 mg/Kg i.v.), the “Blood flow volume in carotid artery, A: Before administration” value was determined as 18.6 mL/min; the “Blood flow volume in carotid artery, B: After administration” value came to 38.7 mL/min; the “Blood flow volume in carotid artery, C: Increase degree” value is 20.1 mL/min; the “Blood flow volume in carotid artery, D: Increase rate” value is on record as 108.3%. In addition, in the test with carotid artery (1.0 mg/Kg i.v.), the “Blood flow volume in carotid artery, A: Before administration” value is 19.3 mL/min; the “Blood flow volume in carotid artery, B: After administration” value is 26.3 mL/min; the “Blood flow volume in carotid artery, C: Increase degree” value came out at 7.0 mL/min; the “Blood flow volume in carotid artery, D: Increase rate” value stood at 33.2%. For the same compound, in the test with femoral artery [6] (0.3 mg/Kg i.v.), the “Lowering of blood pressure in femoral artery” value was found to be 15.0 ± 1.2%. The “Lowering of blood pressure in femoral artery” value with femoral artery [6] (1 mg/Kg i.v.) was 20.8 ± 3.4%.

Turning to `COc1ccc2c(c1)c(CC(=O)O)c(C)n2C(=O)c1ccc(Cl)cc1` [indomethacin], the “topical blood flow in brain (in words)” value in the test on brain is on record as “did decrease a topical blood flow in brain”. Moreover, the “activity to increase blood flow (in words)” value in the test with blood flow is reported as “does not show at all the activity to increase blood flow”. Further, the “activity to inhibit blood platelet aggregation (in words)” value with blood platelet was “show the activity to inhibit blood platelet aggregation”.
